For the experiment, the target named is ENPP-1 (Ectonucleotide Pyrophosphatase/Phosphodiesterase 1) (Homo sapiens (Human), UniProt P22413). Kind of experiment: ENPP1 inhibition assay (AMP Glo, cGAMP substrate). It counts as biochemical. As to conditions: cGAMP 20 μM substrate, ENPP1 1 nM. As for the experimental part: IC50 values of compounds against ENPP-1 (Ectonucleotide Pyrophosphatase/Phosphodiesterase 1) were determined at Integral BioSciences (India) using AMP Glo (Promega, Cat #V5011). Assay was performed in a 30 μL final volume in a white 96-well Half Area plate (Costar,Cat #3693). Dose response curve for the compounds were prepared in duplicates with starting conc. at 5 μM and a three-fold titration was performed. The reaction buffer consisted of 50 mM Tris (pH 8.0), 0.5 mM CaCl2), 1 μM ZnCl2, 250 mM NaCl and 0.1 mg/ml BSA. To the compound dilution, 15 μL of ENPP1 enzyme (R&D Systems; Cat #6136-EN-010) was added to each well (final conc. 1 nM) and the mix was pre-incubated for 15 min at RT. An equal volume (15 μL) containing cGAMP (Sigma, Cat #SML-1229) (final conc. 20 μM) was added to initiate the enzyme reaction and the reaction was incubated for 30 min at RT. The reaction was then stopped by heating at 90° C. for 3 minutes. 10 μl of reaction was then transferred to 384 well white, medium binding plates (Grenier, Cat #781075) to which 10 μl of AMP-Glo Reagent 1 was added and mixed well and incubated for 1 hour at 25° C. Following 60 min incubation, 20 μL of detection mixture was added to the enzyme reaction bringing the final volume to 40 μL. The reaction was further incubated for 60 min at RT after which the plates were read using BioTek Plate reader.
Sequence of ENPP-1 (Ectonucleotide Pyrophosphatase/Phosphodiesterase 1) (P22413 whole entry): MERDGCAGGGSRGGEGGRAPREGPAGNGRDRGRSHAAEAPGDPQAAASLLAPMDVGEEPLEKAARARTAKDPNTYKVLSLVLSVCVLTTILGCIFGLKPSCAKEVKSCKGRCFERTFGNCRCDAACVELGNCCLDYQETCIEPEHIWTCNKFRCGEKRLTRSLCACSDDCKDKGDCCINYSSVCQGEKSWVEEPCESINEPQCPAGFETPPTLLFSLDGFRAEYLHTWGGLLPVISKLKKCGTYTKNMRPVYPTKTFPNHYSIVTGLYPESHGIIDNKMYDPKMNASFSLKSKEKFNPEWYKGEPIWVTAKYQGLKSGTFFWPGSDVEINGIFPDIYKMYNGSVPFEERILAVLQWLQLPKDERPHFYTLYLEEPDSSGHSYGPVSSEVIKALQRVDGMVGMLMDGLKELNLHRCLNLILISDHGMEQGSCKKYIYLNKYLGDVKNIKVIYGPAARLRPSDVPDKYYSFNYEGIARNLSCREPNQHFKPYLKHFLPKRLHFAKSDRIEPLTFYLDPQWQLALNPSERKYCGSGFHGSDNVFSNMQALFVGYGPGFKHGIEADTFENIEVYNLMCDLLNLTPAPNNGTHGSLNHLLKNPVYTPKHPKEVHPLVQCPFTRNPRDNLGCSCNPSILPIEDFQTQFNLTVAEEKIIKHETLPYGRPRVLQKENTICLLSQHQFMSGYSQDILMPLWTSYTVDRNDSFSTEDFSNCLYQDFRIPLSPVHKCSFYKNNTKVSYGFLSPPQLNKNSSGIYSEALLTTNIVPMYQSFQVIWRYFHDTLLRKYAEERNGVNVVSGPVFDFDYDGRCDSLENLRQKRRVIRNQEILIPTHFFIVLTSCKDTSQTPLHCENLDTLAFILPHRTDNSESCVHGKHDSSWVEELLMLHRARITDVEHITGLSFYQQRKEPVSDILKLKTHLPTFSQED
Analysis was done using the standard curve by non-linear regression, variable slope inhibitor curve fits (Graph-Pad Prism) and IC50's of compounds were determined wherever possible.
For orientation: IC50 means the concentration needed to halve the response being measured. Higher therefore signals a need for much substance. Compound `Cc1cc(Cl)n2nc(C3CC3)nc(N3CC4(CC(N(C)S(N)(=O)=O)C4)C3)c12` [Compound 1.85] came in with an IC50 above 2.39 µM.

Compound `Cc1c(Br)cn2ncnc(N3CC(CCNS(N)(=O)=O)C3)c12` [Compound 1.72, 4-(3-(2-sulfamoylaminoethyl)azetidine-1-yl)-6-bromo-5-methylpyrrolo[1,2-f][1,2,4]triazine] had an IC50 above 3 µM.

`CCCN(C1CC2(C1)CN(c1ncnn3c(Cl)cc(C)c13)C2)S(N)(=O)=O` [Compound 1.97, N-(2-(7-chloro-5-methylpyrrolo[2,1-f][1,2,4]triazin-4-yl)-2-azaspiro[3.3]heptan-6-yl)-N-propylsulfamamide] showed an IC50 of 0.036 µM.

In the case of `Cc1cc(Cl)n2ncnc(N3CC(CCN(C4CC4)S(N)(=O)=O)C3)c12` [Compound 1.92, N-(2-(1-(7-chloro-5-methylpyrrolo[2,1-f][1,2,4]triazin-4-yl)azetidin-3-yl)ethyl)-N-cyclopropylsulfamamide], the IC50 amounted to 1.51 µM.

`COc1ccc2ncnc(N3CC(CCNS(N)(=O)=O)C3)c2c1` [Compound 1.16, 4-(3-(2-sulfamoylaminoethyl)azetidine-1-yl)-6-methoxyquinazoline] had a half-inhibitory concentration (IC50) of 0.076 µM.

Regarding `CN(C1CC2(C1)CN(c1ncnc3c(Cl)cn(C)c13)C2)S(N)(=O)=O` [Compound 1.123, N-(2-(7-chloro-5-methyl-5H-pyrrolo[3,2-d]pyrimidin-4-yl)-2-azaspiro[3.3]heptan-6-yl)-N-methylsulfamamide], the IC50 stood at 0.039 µM. Compared with the last compound, the IC50 is about 1.9-fold lower.

With `COc1ccc2c(N3CC4(CC(N(C)S(N)(=O)=O)C4)C3)cnnc2c1` [Compound 1.87, N-(2-(7-methoxycinnolin-4-yl)-2-azaspiro[3.3]heptan-6-yl)-N-methylsulfamide], half-maximal inhibition (IC50) required 0.024 µM. Compared with the last compound, the IC50 is about 1.6-fold lower.

`Cc1ccn2ncnc(N3CC4(CC(NS(N)(=O)=O)C4)C3)c12` [Compound 1.62] gave an IC50 of 0.067 µM.

On to `Cc1cc(Cl)n2ncnc(N3CC(CN(C)S(N)(=O)=O)C3)c12` [Compound 1.86], for which the IC50 stood at 0.106 µM.

`Cc1cc(Cl)n2ncnc(N3CC4(CC(N(CC(C)(F)F)S(N)(=O)=O)C4)C3)c12` [Compound 1.128]: the IC50 was determined as 0.03 µM.

In the case of `COc1ccc2c(N3CC4(CC(N(CC(F)F)S(N)(=O)=O)C4)C3)ncnc2c1` [Compound 1.131, N-(2,2-difluoroethyl)-N-(2-(7-methoxyquinazolin-4-yl)-2-azaspiro[3.3]heptan-6-yl) sulfamamide], half-maximal inhibition (IC50) was put at 0.055 µM.

`COc1cc(F)cc2c(N3CC(CCNS(N)(=O)=O)C3)ncnc12` [Compound 1.38] registered an IC50 above 3 µM.

Compound `Cc1cc(Cl)n2ncnc(N3CC4(CC(N(CC5CCCCC5)S(N)(=O)=O)C4)C3)c12` [Compound 1.117, N-(2-(7-chloro-5-methylpyrrolo[2,1-f][1,2,4]triazin-4-yl)-2-azaspiro[3.3]heptan-6-yl)-N-(cyclohexylmethyl)sulfamide] had an IC50 of 0.239 µM. In other words, the sub-micromolar range.

The compound `Cc1ccn2ncnc(N3CC4(CC(N(C)S(N)(=O)=O)C4)C3)c12` [Compound 1.73] gave an IC50 of 0.247 µM.

In turn, `Cc1cc(Cl)n2ncnc(N3CC4(CC(N(CC(F)(F)F)S(N)(=O)=O)C4)C3)c12` [Compound 1.129, N-(2-(7-chloro-5-methylpyrrolo[1,2-f][1,2,4]triazin-4-yl)-2-azaspiro[3.3]heptan-6-yl)-N-(2,2,2-trifluoroethyl)sulfamamide] registered an IC50 of 0.047 µM. Compared with the last compound, the IC50 is about 5.3-fold lower.

As to `COc1cc2ncnc(N3CC(CCNS(N)(=O)=O)C3)c2cc1Br` [Compound 1.41, 4-(3-(2-sulfamoylaminoethyl)azetidine-1-yl)-6-bromo-7-methoxyquinazoline], the half-inhibitory concentration (IC50) was 0.737 µM.

In the case of `Cc1cc(Cl)n2ncnc(N3CC4(CC(N(Cc5ccc(C(F)(F)F)cc5)S(N)(=O)=O)C4)C3)c12` [Compound 1.109, N-(2-(7-chloro-5-methylpyrrolo[2,1-f][1,2,4]triazin-4-yl)-2-azaspiro[3.3]heptan-6-yl)-N-(4-(trifluoromethyl)benzyl)sulfamamide], 0.189 µM corresponded to half-maximal inhibition (IC50). Against the preceding compound, the IC50 is about 3.9-fold lower.

For the compound `Cc1cc(Cl)n2ncnc(N3CC4(CC(N(CC(O)C(F)(F)F)S(N)(=O)=O)C4)C3)c12` (centres unmarked) [Compound 1.120, N-(2-(7-chloro-5-methylpyrrolo[2,1-f][1,2,4]triazin-4-yl)-2-azaspiro[3.3]heptan-6-yl)-N-(3,3,3-trifluoro-2-hydroxypropyl)sulfamamide], the IC50 was determined as 0.018 µM.

In turn, `Cc1cc(Cl)n2ncnc(N3CC4(CC(NCc5ccc(S(N)(=O)=O)cc5)C4)C3)c12` [Compound 1.132, 4-(((2-(7-chloro-5-methylpyrrolo[2,1-f][1,2,4]triazin-4-yl)-2-azaspiro[3.3]heptan-6-yl)amino)methyl)benzenesulfonamide] gave an IC50 of 0.181 µM.

Take `Cc1c(Cl)cn2ncnc(N3CC4(CC(N(C)S(N)(=O)=O)C4)C3)c12` [Compound 1.75, N-[2-(6-chloro-5-methylpyrrolo[2,1-f][1,2,4]triazin-4-yl)-2-azaspiro[3.3]hept-6-yl]-N-methylsulfuric diamide]: the IC50 stood at 0.391 µM. Compared with the last compound, the IC50 is about 2.2-fold higher.

The compound `COc1cc2ncnc(N3CC4(CC(NS(N)(=O)=O)C4)C3)c2cc1OC` [Compound 1.15, 4-(6-sulfamoylamino-2-azaspiro[3.3]heptan-2-yl)-6,7-dimethoxyquinazoline] had an IC50 of 0.005 µM.

Consider `COc1ccc2c(N3CC(CCNS(N)(=O)=O)C3)nc(-c3ccccc3)nc2c1` [Compound 1.34, 4-(3-(2-sulfamoylaminoethyl)azetidine-1-yl)-7-methoxy-2-phenylquinazoline], for which the IC50 was above 3 µM.

In the case of `COc1cc2ncnc(N3CC(CCP(=O)(O)O)C3)c2cc1OC` [Compound 1.29, 2-(1-(6,7-dimethoxyquinazolin-4-yl)azetidin-3-yl)ethylphosphonic acid], the IC50 was found to be 0.892 µM.

`Cc1cc(Cl)n2ncnc(N3CC(CCN(C4CCC4)S(N)(=O)=O)C3)c12` [Compound 1.94, N-(2-(1-(7-chloro-5-methylpyrrolo[2,1-f][1,2,4]triazin-4-yl)azetidin-3-yl)ethyl)-N-cyclobutylsulfamamide]: the IC50 was above 3 µM.

Regarding `Cc1ccn2ncnc(N3CC(CCB(O)O)C3)c12` [Compound 1.59, 2-(1-(5-methylpyrrolo[1,2-f][1,2,4]triazin-4-yl)azetidin-3-yl)ethylboronic acid], the IC50 was above 3 µM.

`Cc1cc(Cl)n2ncnc(N3CC4(CC(N(C[C@H](O)C(F)(F)F)S(N)(=O)=O)C4)C3)c12` (stereo in doubt) [Compound 1.126, N-(2-(7-chloro-5-methylpyrrolo[2,1-f][1,2,4]triazin-4-yl)-2-azaspiro[3.3]heptan-6-yl)-N-(3,3,3-trifluoro-2-hydroxypropyl)sulfamide]: the IC50 came to 0.023 µM.

Compound `COc1ccc2c(N3CC(CCNS(N)(=O)=O)C3)c(C#N)cnc2c1` [Compound 1.13, 4-(3-(2-sulfamoylaminoethyl)azetidine-1-yl)-7-methoxyquinoline-3-carbonitrile] gave an IC50 of 0.011 µM.

The compound `COCCN(C1CC2(C1)CN(c1ncnn3c(Cl)cc(C)c13)C2)S(N)(=O)=O` [Compound 1.122, N-(2-(7-chloro-5-methylpyrrolo[1,2-f][1,2,4]triazin-4-yl)-2-azaspiro[3.3]heptan-6-yl)-N-(2-methoxyethyl)sulfamamide] had an IC50 of 0.062 µM.

The compound `COc1ccc2c(N3CC(CCNS(N)(=O)=O)C3)ncnc2c1` [Compound 1.8, (2-(1-(7-methoxyquinazolin-4-yl)azetidin-3-yl)ethyl)aminisulfonamide] had an IC50 of 0.008 µM.

Take `CN(C1CC2(C1)CN(c1nc(Cl)nc3c1cnn3C)C2)S(N)(=O)=O` [Compound 1.96, N-(2-(6-chloro-1-methyl-1H-pyrazolo[3,4-d]pyrimidin-4-yl)-2-azaspiro[3.3]heptan-6-yl)-N-methylsulfamamide]: the IC50 was above 3 µM.

Regarding `CN(C1CC2(C1)CN(c1ncnc3[nH]cc(Cl)c13)C2)S(N)(=O)=O` [Compound 1.124, N-(2-(5-chloro-7,7α-dihydro-4αH-pyrrolo[2,3-d]pyrimidin-4-yl)-2-azaspiro[3.3]heptan-6-yl)-N-methylsulfamamide], it took 1.86 µM to reach half-maximal inhibition (IC50).

In turn, `COc1cc2ncnc(N3CC(CCNS(N)(=O)=O)(c4ccccc4)C3)c2cc1OC` [Compound 1.58, 4-3-(2-(sulfamoylamino)ethyl)-3-phenylazetidin-1-yl-6,7-dimethoxyquinazoline] returned an IC50 of 0.66 µM.

On to `COc1cc2ncc(C#N)c(N3CC(CCNS(N)(=O)=O)C3)c2cc1OC` [Compound 1.12, (2-(1-(3-cyano-6,7-dimethoxyquinolin-4-yl)azetidin-3-yl)ethyl)aminisulfonamide], for which the IC50 was determined as 0.004 µM.

In the case of `Cc1cc(Cl)n2ncnc(N3CC4(CC(N(C5CCCC5)S(N)(=O)=O)C4)C3)c12` [Compound 1.110, N-(2-(7-chloro-5-methylpyrrolo[2,1-f][1,2,4]triazin-4-yl)-2-azaspiro[3.3]heptan-6-yl)-N-cyclopentylsulfamamide], the IC50 amounted to 0.395 µM.

For the compound `COc1cc2nc(-c3ccc(F)cc3)nc(N3CC(CCNS(N)(=O)=O)C3)c2cc1OC` [Compound 1.33, 4-(3-(2-sulfamoylaminoethyl)azetidine-1-yl)-2-(4-fluorophenyl)-6,7-dimethoxyquinazoline], it took 0.248 µM to reach half-maximal inhibition (IC50).

The record behind these values is patent US20240352046A1, “ECTONUCLEOTIDE PYROPHOSPHATASE-PHOSPHODIESTERASE-1 (ENPP1) INHIBITORS AND USES THEREOF” (1cBio, Inc., priority 2020, published 2024).
